Source: US12479840B2, “HMG-CoA reductase degradation inducing compound” (Uppthera, priority 2020, dated 2025)

target: T1, HMG-CoA reductase (Homo sapiens, UniProt P04035); assay: HMG-CoA reductase (HMGCR) degradation in HepG2 cells by western blotting; assay type: cell-based; conditions: treated for 18 hours, ratio of HMG-CoA reductase to GAPDH, read-out: DC50
T1 construct: endogenous in cells; host or cells: HepG2 (Korea Cell Line Bank)
T1 sequence (P04035 1-888): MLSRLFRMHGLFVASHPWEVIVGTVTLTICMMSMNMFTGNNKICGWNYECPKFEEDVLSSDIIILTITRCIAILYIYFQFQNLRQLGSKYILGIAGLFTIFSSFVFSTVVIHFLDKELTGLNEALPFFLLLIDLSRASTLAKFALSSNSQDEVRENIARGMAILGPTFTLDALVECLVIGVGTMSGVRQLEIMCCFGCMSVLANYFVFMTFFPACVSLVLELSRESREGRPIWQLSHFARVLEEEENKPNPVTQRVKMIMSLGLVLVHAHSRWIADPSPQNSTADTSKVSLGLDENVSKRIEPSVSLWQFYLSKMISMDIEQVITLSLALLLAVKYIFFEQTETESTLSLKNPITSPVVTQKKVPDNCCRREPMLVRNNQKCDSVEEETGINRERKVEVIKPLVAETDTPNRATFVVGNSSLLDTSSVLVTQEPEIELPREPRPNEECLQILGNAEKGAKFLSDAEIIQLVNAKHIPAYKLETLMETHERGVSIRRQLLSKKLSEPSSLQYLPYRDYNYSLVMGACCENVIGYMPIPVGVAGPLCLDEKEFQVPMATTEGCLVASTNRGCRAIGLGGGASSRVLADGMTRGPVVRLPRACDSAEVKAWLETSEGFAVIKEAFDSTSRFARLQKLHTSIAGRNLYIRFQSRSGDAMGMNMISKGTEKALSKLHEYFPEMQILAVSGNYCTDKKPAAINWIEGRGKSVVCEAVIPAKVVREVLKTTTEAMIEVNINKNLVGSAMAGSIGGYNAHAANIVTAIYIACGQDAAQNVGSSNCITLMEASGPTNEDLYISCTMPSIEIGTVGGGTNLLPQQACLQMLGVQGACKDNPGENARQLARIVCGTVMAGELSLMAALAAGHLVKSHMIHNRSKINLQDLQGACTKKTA
Outline: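 HepG2 cells (passage P105–P110) treated 18 hours with compounds in 10-point three-fold dilutions from 3 μM. RIPA lysates (15 μg protein, BCA-quantified) run on SDS-PAGE and immunoblotted for HMGCR (1:500) with GAPDH (1:20000) as loading control, primary antibodies 16 hours at 4° C.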

Structure (SMILES) | DC50
C[C@H]1C=C2C=C[C@H](C)[C@H](CC[C@@H]3C[C@@H](O[Si](C)(C)C(C)(C)C)CC(=O)O3)[C@H]2[C@@H](OC(=O)NCCCn2cnc(CNc3cccc4c3C(=O)N(C3CCC(=O)NC3=O)C4=O)c2)C1 (stereo partly drawn) [Compound 102, (1S,3R,7S,8S,8aR)-8-(2-((2R,4R)-4-((tert-butyldimethylsilyl)oxy)-6-oxotetrahydro-2H-pyran-2-yl)ethyl)-3,7-dimethyl-1,2,3,7,8,8a-hexahydronaphthalen-1-yl (3-(4-(((2-(2,6-dioxopiperidin-3-yl)-1,3-dioxoisoindolin-4-yl)amino)methyl)-1H-imidazol-1-yl)propyl)carbamate] | < 0.05 µM
C[C@H]1C=C2C=C[C@H](C)[C@H](CC[C@@H]3C[C@@H](O[Si](C)(C)C(C)(C)C)CC(=O)O3)[C@H]2[C@@H](OC(=O)NCCOCCOCCNc2ccc3c(c2)C(=O)N(C2CCC(=O)NC2=O)C3=O)C1 (stereo partly drawn) [Compound 67, (1S,3R,7S,8S,8aR)-8-(2-((2R,4R)-4-((tert-butyldimethylsilyl)oxy)-6-oxotetrahydro-2H-pyran-2-yl)ethyl)-3,7-dimethyl-1,2,3,7,8,8a-hexahydronaphthalen-1-yl (2-(2-(2-((2-(2,6-dioxopiperidin-3-yl)-1,3-dioxoisoindolin-5-yl)amino)ethoxy)ethoxy)ethyl)carbamate] | < 0.05 µM
C[C@H]1C=C2C=C[C@H](C)[C@H](CC[C@@H]3C[C@@H](O[Si](C)(C)C(C)(C)C)CC(=O)O3)[C@H]2[C@@H](OC(=O)NCCCCCCN2CCC(Nc3cccc4c3C(=O)N(C3CCC(=O)NC3=O)C4=O)CC2)C1 (stereo partly drawn) [Compound 125, (1S,3R,7S,8S,8aR)-8-(2-((2R,4R)-4-((tert-butyldimethylsilyl)oxy)-6-oxotetrahydro-2H-pyran-2-yl)ethyl)-3,7-dimethyl-1,2,3,7,8,8a-hexahydronaphthalen-1-yl (6-(4-((2-(2,6-dioxopiperidin-3-yl)-1,3-dioxoisoindolin-4-yl)amino)piperidin-1-yl)hexyl)carbamate] | 0.05 to 0.5 µM
C[C@H]1C=C2C=C[C@H](C)[C@H](CC[C@@H]3C[C@@H](O)CC(=O)O3)[C@H]2[C@@H](OC(=O)NCCOCCOCCOCCNc2ccccc2)C1 [Compound 39, (1S,3R,7S,8S,8aR)-8-(2-((2R,4R)-4-hydroxy-6-oxotetrahydro-2H-pyran-2-yl)ethyl)-3,7-dimethyl-1,2,3,7,8,8a-hexahydronaphthalen-1-yl (2-(2-(2-(2-(phenylamino)ethoxy)ethoxy)ethoxy)ethyl)carbamate] | > 0.5 µM
Cc1ncsc1-c1ccc(CNC(=O)[C@@H]2C[C@@H](O)CN2C(=O)[C@@H](NC(=O)CCCN2CCC(CCCNC(=O)O[C@@H]3C[C@H](C)C=C4C=C[C@@H](C)[C@@H](CC[C@H]5C[C@H](O)CC(=O)O5)[C@@H]43)CC2)C(C)(C)C)cc1 [Compound 162, (1R,3S,7R,8R,8aS)-8-(2-((2S,4S)-4-hydroxy-6-oxotetrahydro-2H-pyran-2-yl)ethyl)-3,7-dimethyl-1,2,3,7,8,8a-hexahydronaphthalen-1-yl (3-(1-(4-(((S)-1-((2S,4R)-4-hydroxy-2-((4-(4-methylthiazol-5-yl)benzyl)carbamoyl)pyrrolidin-1-yl)-3,3-dimethyl-1-oxobutan-2-yl)amino)-4-oxobutyl)piperidin-4-yl)propyl)carbamate] | < 0.05 µM
C[C@H]1C=C2C=C[C@H](C)[C@H](CC[C@@H]3C[C@@H](O[Si](C)(C)C(C)(C)C)CC(=O)O3)[C@H]2[C@@H](OC(=O)NCCCCCCCC(=O)Nc2cccc3c2C(=O)N(C2CCC(=O)NC2=O)C3=O)C1 (stereo partly drawn) [Compound 76, (1S,3R,7S,8S,8aR)-8-(2-((2R,4R)-4-((tert-butyldimethylsilyl)oxy)-6-oxotetrahydro-2H-pyran-2-yl)ethyl)-3,7-dimethyl-1,2,3,7,8,8a-hexahydronaphthalen-1-yl (8-((2-(2,6-dioxopiperidin-3-yl)-1,3-dioxoisoindolin-4-yl)amino)-8-oxooctyl)carbamate] | < 0.05 µM
C[C@H]1C=C2C=C[C@H](C)[C@H](CC[C@@H]3C[C@@H](O)CC(=O)O3)[C@H]2[C@@H](OC(=O)NCCCCCCNc2cccc3c2C(=O)N(C2CCC(=O)NC2=O)C3=O)C1 (stereo partly drawn) [Compound 59, (1S,3R,7S,8S,8aR)-8-(2-((2R,4R)-4-hydroxy-6-oxotetrahydro-2H-pyran-2-yl)ethyl)-3,7-dimethyl-1,2,3,7,8,8a-hexahydronaphthalen-1-yl (6-((2-(2,6-dioxopiperidin-3-yl)-1,3-dioxoisoindolin-4-yl)amino)hexyl)carbamate] | 0.05 to 0.5 µM
C[C@H]1C=C2C=C[C@H](C)[C@H](CC[C@@H]3C[C@@H](O)CC(=O)O3)[C@H]2[C@@H](OC(=O)NCCOCCOCCNc2cccc3nnn(C4CCC(=O)NC4=O)c(=O)c23)C1 (stereo partly drawn) [Compound 156, (1S,3R,7S,8S,8aR)-8-(2-((2R,4R)-4-hydroxy-6-oxotetrahydro-2H-pyran-2-yl)ethyl)-3,7-dimethyl-1,2,3,7,8,8a-hexahydronaphthalen-1-yl (2-(2-(2-((3-(2,6-dioxopiperidin-3-yl)-4-oxo-3,4-dihydrobenzo[d][1,2,3]triazin-5-yl)amino)ethoxy)ethoxy)ethyl)carbamate] | < 0.05 µM
C[C@H]1C=C2C=C[C@H](C)[C@H](CC[C@@H]3C[C@@H](O)CC(=O)O3)[C@H]2[C@@H](OC(=O)NCCOCCOCC(=O)Nc2cccc3c2C(=O)N(C2CCC(=O)NC2=O)C3=O)C1 (stereo partly drawn) [Compound 143, (1S,3R,7S,8S,8aR)-8-(2-((2R,4R)-4-hydroxy-6-oxotetrahydro-2H-pyran-2-yl)ethyl)-3,7-dimethyl-1,2,3,7,8,8a-hexahydronaphthalen-1-yl (2-(2-(2-((2-(2,6-dioxopiperidin-3-yl)-1,3-dioxoisoindolin-4-yl)amino)-2-oxoethoxy)ethoxy)ethyl)carbamate] | < 0.05 µM
CN[C@@H](C)C(=O)N[C@H](C(=O)N1CCC[C@H]1c1nc(C(=O)c2cccc(OCCOCCOCCNC(=O)O[C@H]3C[C@@H](C)C=C4C=C[C@H](C)[C@H](CC[C@@H]5C[C@@H](O)CC(=O)O5)[C@H]43)c2)cs1)C1CCCCC1 [Compound 31, (1S,3R,7S,8S,8aR)-8-(2-((2R,4R)-4-hydroxy-6-oxotetrahydro-2H-pyran-2-yl)ethyl)-3,7-dimethyl-1,2,3,7,8,8a-hexahydronaphthalen-1-yl (2-(2-(2-(3-(2-((S)-1-((S)-2-cyclohexyl-2-((S)-2-(methylamino)propanamido)acetyl)pyrrolidin-2-yl)thiazole-4-carbonyl)phenoxy)ethoxy)ethoxy)ethyl)carbamate] | < 0.05 µM
C[C@H]1C=C2C=C[C@H](C)[C@H](CC[C@@H]3C[C@@H](O)CC(=O)O3)[C@H]2[C@@H](OC(=O)NCCC2CCN(C(=O)COc3cccc4c3C(=O)N(C3CCC(=O)NC3=O)C4=O)CC2)C1 (stereo partly drawn) [Compound 81, (1S,3R,7S,8S,8aR)-8-(2-((2R,4R)-4-hydroxy-6-oxotetrahydro-2H-pyran-2-yl)ethyl)-3,7-dimethyl-1,2,3,7,8,8a-hexahydronaphthalen-1-yl (2-(1-(2-((2-(2,6-dioxopiperidin-3-yl)-1,3-dioxoisoindolin-4-yl)oxy)acetyl)piperidin-4-yl)ethyl)carbamate] | < 0.05 µM
C[C@H]1C=C2C=C[C@H](C)[C@H](CC[C@@H]3C[C@@H](O)CC(=O)O3)[C@H]2[C@@H](OC(=O)NCCCOCCOCCOCCCNc2cccc3c2C(=O)N(C2CCC(=O)NC2=O)C3=O)C1 (stereo partly drawn) [Compound 157, (1S,3R,7S,8S,8aR)-8-(2-((2R,4R)-4-hydroxy-6-oxotetrahydro-2H-pyran-2-yl)ethyl)-3,7-dimethyl-1,2,3,7,8,8a-hexahydronaphthalen-1-yl (3-(2-(2-(3-((2-(2,6-dioxopiperidin-3-yl)-1,3-dioxoisoindolin-4-yl)amino)propoxy)ethoxy)ethoxy)propyl)carbamate] | < 0.05 µM
C[C@H]1C=C2C=C[C@H](C)[C@H](CC[C@@H]3C[C@@H](O)CC(=O)O3)[C@H]2[C@@H](OC(=O)NCCOCCOCC#Cc2cccc3c2C(=O)N(C2CCC(=O)NC2=O)C3=O)C1 (stereo partly drawn) [Compound 115, (1S,3R,7S,8S,8aR)-8-(2-((2R,4R)-4-hydroxy-6-oxotetrahydro-2H-pyran-2-yl)ethyl)-3,7-dimethyl-1,2,3,7,8,8a-hexahydronaphthalen-1-yl (2-(2-((3-(2-(2,6-dioxopiperidin-3-yl)-1,3-dioxoisoindolin-4-yl)prop-2-yn-1-yl)oxy)ethoxy)ethyl)carbamate] | < 0.05 µM
